Experimental data from patent US20230346878A1, “Treatment of Abdominal Pain Associated with Diarrhea-Predominant Irritable Bowel Syndrome” (Ironwood Pharmaceuticals, Inc., priority 2019, published 2023).
Where a SMILES comes first, the peptide text is derived from it. Bridges are numbered along the chain shown (N, C = ends).

Assay: Phase 1 study of linaclotide DR2: PK in plasma and inspection of stool for intact tablets
Format: in vivo, human
Experimental: Delayed release “DR2” linaclotide tablets were administered in a double-blind, placebo-controlled Phase 1 study randomized healthy adult volunteers at dosing levels of 300 μg, 1200 μg, and 3000 μg or placebo for 7 days. Safety and tolerability were assessed at each dose and prior to escalation to the highest dose. Gastrointestinal pharmacodynamics (“PD”) assessments included change from baseline (CFB) in bowel movement frequency (Spontaneous bowel movement [SBM]/week) and stool consistency (Bristol stool form scale [BSFS]). To confirm release of linaclotide, all of the subject's stools were inspected for intact DR2 tablets.
PK assessments were conduct through blood determination of linaclotide and its metabolite in plasma, and feces for the determination of linaclotide and its metabolite in stool, were collected from all dosed subjects during the Clinic Period.

C[C@@H]1NC(=O)[C@@H]2CCCN2C(=O)[C@H](CC(N)=O)NC(=O)[C@@H]2CSSC[C@H](N)C(=O)N[C@H]3CSSC[C@H](NC1=O)C(=O)N[C@@H]([C@@H](C)O)C(=O)NCC(=O)N[C@H](C(=O)N[C@@H](Cc1ccc(O)cc1)C(=O)O)CSSC[C@H](NC(=O)[C@H](Cc1ccc(O)cc1)NC(=O)[C@H](CCC(=O)O)NC3=O)C(=O)N2 [Linaclotide, linaclotide] (H-CCEYCCNPACTGCY-OH; disulfide 1-6, 2-10, 5-13 (inferred))
systemic absorption / exposure (DR2 tablets orally for 7 days): minimally absorbed with negligible systemic exposure | detection in plasma (following 7 days of oral administration of DR2): Neither linaclotide nor its active metabolite were detected
